The values below come from patent publication US20260335468A1, “MOLECULAR RADIOAFTERGLOW PROBES FOR CANCER RADIODYNAMIC THERANOSTICS” (NANYANG TECHNOLOGICAL UNIVERSITY, priority 2023, published 2026).

One series has as its system subcutaneous U87 tumour. Put plainly: RDT of subcutaneous U87 tumour-bearing mice with IDPASu. To be noted: intratumoral, X-ray total 0.3 Gy in three fractions. It is filed as in vivo, mouse (BALB/c nude), human U87. As to the method: To establish a subcutaneous glioblastoma mouse model, BALB/c nude mice (six weeks old, female) were anaesthetized with isoflurane (2.0%) and subcutaneously injected with human U87 or U87-Luc (2×10^6 per mouse) suspended in PBS (0.01 M, pH 7.4) on the left flank or bilateral flank of each mouse. The tumour size was calculated according to the formula V=½ab^2, where a and b are the longest and shortest diameter of the tumour, respectively. After tumour sizes reached ~70 mm^3, the mice were used for imaging and therapy. […] At 15 min post-injection, bioluminescence signals were recorded using an IVIS imaging system with an open filter and automatic acquisition time. […]
For subcutaneous tumour therapy, to study the X-ray dynamic activity of IDPASu, U87-tumour-bearing mice were randomly divided into four groups (PBS, PBS+X-ray, IDPASu and IDPASu+X-ray), which includes five mice per group. […] The tumour volume and body weight of mice were monitored every two days. […] The brain tumour size was monitored using bioluminescence signals of luciferin from the tumour site every three days. […]

Series [1] can be described thus: ^1O2 generation upon X-ray irradiation (ESR, TEMP trap). It is filed as physicochemical. The settings on record: X-ray irradiation, ESR. As to the method: To study ^1O2 generation, a mixture of DPAS or IDPAS (100 M) and TEMP (10 mM) in PBS (0.01 M, pH 7.4, 50% DMSO) was irradiated by X-rays at 2 Gy (100 mGy s^−1 for 20 s) or 5 mGy (250 μGy s^−1 for 20 s). The ESR signals of the mixture were recorded with a Bruker A300 instrument. The ESR signal of the free radical 2,2,6,6-tetramethyl-1-piperidinyloxyl (g=2.0060) was generated by the reaction of ^1O2 with TEMP. The ^1O2 quencher NaN3 (1 mM) was added to validate the afterglow mechanism of IDPASu. Additionally, other commercially available radio sensitizers (such as acridine orange, hematoporphyrin and verteporfin) were measured and compared. The procedure of block depths was similar to that of the tissue penetration depth study and the ^1O2 generation for different depth tissues was measured. The ESR signal changes of MRAP in the absence or presence of CatB were measured in a similar way. The ESR signals of 2,2,6,6-tetramethyl-1-piperidinyloxyl from the reaction of ^1O2 with TEMP were plotted as a function of the concentration of ^1O2, which was generated by the addition of NaOCl to H2O2. This generated the standard curve between the ESR intensity and ^1O2 concentration.

In the case of `COC(=C1C2CC3CC(C2)CC1C3)c1cc(O)c(I)cc1/C=C/C1=CC(=C(C#N)C#N)c2ccccc2S1` [IDPASu], in the series with subcutaneous U87 tumour, the body weight loss entry was “no loss in body weight” and the tumour growth entry is given as “completely inhibited the tumour growth”. Also, the “^1O2 generation / radiodynamic activity” value in series [1] was “the highest”.
